According to patent US9783537B2, “3-(4-ethylnylphenyl) pyridopyrimidinone compounds and process for preparation thereof useful as potential anticancer agents” (Council of Scientific & Industrial Research, priority 2013, dated 2017):
Where two headings read alike, the source gives them in different places.

Tests used:
[1] = test system: two prostate cancer cell line (PC-3, DU-145); assay: in vitro anticancer activity, prostate panel; assay type: cell-based; conditions: Homo sapiens; two prostate cancer cell lines, exposure at least 48 h; read-out: GI50, range over panel
KM12 = assay: SRB 48 h growth assay, Colon KM12; assay type: cell-based, human
[2] = test system: seven colon cancer cell line (COLO 205, HCC-2998, HCT-116, HCT-15, HT29, KM12 and SW-620); assay: in vitro anticancer activity, colon panel; assay type: cell-based; conditions: Homo sapiens; seven colon cancer cell lines, exposure at least 48 h; read-out: GI50, range over panel
LOX IMVI = assay: SRB 48 h growth assay, Melanoma LOX IMVI; assay type: cell-based, human
HL-60(TB) = assay: SRB 48 h growth assay, Leukemia HL-60(TB); assay type: cell-based, human
SK-OV-3 = assay: SRB 48 h growth assay, Ovarian SK-OV-3; assay type: cell-based, human; conditions: SK-OV-3, Ovarian; for GI50 / CC50: Homo sapiens; for CC50: read-out: Log10 LC50 (converted)
HCT-116 = assay: SRB 48 h growth assay, Colon HCT-116; assay type: cell-based, human; conditions: HCT-116, Colon
OVCAR-4 = assay: SRB 48 h growth assay, Ovarian OVCAR-4; assay type: cell-based, human; conditions: OVCAR-4, Ovarian
UACC-62 = assay: SRB 48 h growth assay, Melanoma UACC-62; assay type: cell-based, human; conditions: UACC-62, Melanoma
786-0 = assay: SRB 48 h growth assay, Renal 786-0; assay type: cell-based, human; conditions: 786-0, Renal
MDA-MB-231/ATCC = assay: SRB 48 h growth assay, Breast MDA-MB-231/ATCC; assay type: cell-based, human; conditions: for CC50 / GI50: Homo sapiens; for CC50: read-out: Log10 LC50 (converted)
NCI/ADR-RES = assay: SRB 48 h growth assay, Ovarian NCI/ADR-RES; assay type: cell-based, human; conditions: for GI50 / CC50: Homo sapiens; for CC50: read-out: Log10 LC50 (converted)
NCI-H23 = assay: SRB 48 h growth assay, Non-small Cell Lung NCI-H23; assay type: cell-based, human
OVCAR-3 = assay: SRB 48 h growth assay, Ovarian OVCAR-3; assay type: cell-based, human; conditions: OVCAR-3, Ovarian
MCF7 = assay: SRB 48 h growth assay, Breast MCF7; assay type: cell-based, human; conditions: for GI50 / CC50: Homo sapiens; for CC50: read-out: Log10 LC50 (converted)
MOLT-4 = assay: SRB 48 h growth assay, Leukemia MOLT-4; assay type: cell-based, human; conditions: MOLT-4, Leukemia
[3] = in vitro anticancer activity, non-small cell lung panel; assay type: cell-based; conditions: Homo sapiens; nine non-small cell lung cancer cell lines, exposure at least 48 h; read-out: GI50, range over panel
RPMI-8226 = assay: SRB 48 h growth assay, Leukemia RPMI-8226; assay type: cell-based, human; conditions: RPMI-8226, Leukemia; for GI50 / CC50: Homo sapiens; for CC50: read-out: Log10 LC50 (converted)
HOP-62 = assay: SRB 48 h growth assay, Non-small Cell Lung HOP-62; assay type: cell-based, human; conditions: HOP-62, Non-small Cell Lung
M14 = assay: SRB 48 h growth assay, Melanoma M14; assay type: cell-based, human
NCI-H322M = assay: SRB 48 h growth assay, Non-small Cell Lung NCI-H322M; assay type: cell-based, human
SN12C = assay: SRB 48 h growth assay, Renal SN12C; assay type: cell-based, human
OVCAR-5 = assay: SRB 48 h growth assay, Ovarian OVCAR-5; assay type: cell-based, human; conditions: OVCAR-5, Ovarian
HT-29 = assay: SRB 48 h growth assay, Colon HT-29; assay type: cell-based, human; conditions: HT-29, Colon
COLO 205 = assay: SRB 48 h growth assay, Colon COLO 205; assay type: cell-based, human; conditions: COLO 205, Colon
SK-MEL-2 = assay: SRB 48 h growth assay, Melanoma SK-MEL-2; assay type: cell-based, human; conditions: SK-MEL-2, Melanoma
SF-268 = assay: SRB 48 h growth assay, CNS SF-268; assay type: cell-based, human; conditions: SF-268, CNS
[4] = Homo sapiens, read-out: Growth Inhibition GI50
[5] = Homo sapiens, read-out: Log10 GI50 (converted)
[6] = read-out: Growth Inhibition GI50
[7] = read-out: Log10 GI50 (converted)
[8] = Homo sapiens, read-out: Log10 LC50 (converted)

With `C#Cc1ccc(-n2c(/C=C/c3ccc(Cl)c(F)c3)nc3ncccc3c2=O)cc1` [4g, (E)-2-(4-chloro-3-fluorostyryl)-3-(4-ethynylphenyl)pyrido[2,3-d]pyrimidin-4(3H)-one] the GI50 [1] was 0.34 µM, the GI50 (KM12; [4]) was 0.34 µM and the GI50 (KM12; [5]) was 0.347 µM. The GI50 [2] was 0.33 to 0.37 µM, the GI50 (LOX IMVI; [4]) was 0.26 µM and the GI50 (LOX IMVI; [5]) was 0.263 µM. The “Log10 TGI50” value (HL-60(TB)) was greater than −4.00, the GI50 (SK-OV-3; [6]) was 0.34 µM and the GI50 (SK-OV-3; [7]) was 0.347 µM. For the same molecule, the CC50 (SK-OV-3) was greater than 100 µM, the GI50 (HCT-116; [4]) was 0.33 µM and the GI50 (HCT-116; [5]) was 0.331 µM. It also gave a GI50 (OVCAR-4; [4]) of 0.48 µM, a GI50 (OVCAR-4; [5]) of 0.479 µM and a GI50 (UACC-62; [4]) of 0.48 µM. It also gave a GI50 (UACC-62; [5]) of 0.49 µM, a GI50 (786-0; [4]) of 0.36 µM and a GI50 (786-0; [5]) of 0.372 µM. For the same molecule, the CC50 (MDA-MB-231/ATCC) was greater than 100 µM, the GI50 (NCI/ADR-RES; [6]) was 0.41 µM and the GI50 (NCI/ADR-RES; [7]) was 0.417 µM. It also gave a CC50 (NCI/ADR-RES) greater than 100 µM, an LC50 (NCI-H23; [8]) greater than 100 µM and a GI50 (OVCAR-3; [4]) of 0.3 µM. It also gave a GI50 (OVCAR-3; [5]) of 0.302 µM, a GI50 (MCF7; [6]) of 0.32 µM and a GI50 (MCF7; [7]) of 0.324 µM. It also gave a CC50 (MCF7) greater than 100 µM, a GI50 (MOLT-4; [4]) of 0.54 µM and a GI50 (MOLT-4; [5]) of 0.55 µM. For the same molecule, the CC50 (MOLT-4; [8]) was greater than 100 µM, the “Log10 TGI50” value (MOLT-4) was greater than −4.00 and the GI50 [3] was 0.2 to 0.58 µM. The GI50 (RPMI-8226; [6]) was 0.25 µM, the GI50 (RPMI-8226; [7]) was 0.257 µM and the CC50 (RPMI-8226) was greater than 100 µM. The GI50 (HOP-62; [4]) was 0.58 µM, the GI50 (HOP-62; [5]) was 0.589 µM and the GI50 (M14; [4]) was 0.3 µM. For the same molecule, the GI50 (M14; [5]) was 0.302 µM.
For `C#Cc1ccc(-n2c(/C=C/c3cc(OC)c(OC)c(OC)c3)nc3ncccc3c2=O)cc1` [4q, (E)-3-(4-Ethynylphenyl)-2-(3,4,5-trimethoxystyryl)pyrido[2,3-d]pyrimidin-4(3H)-one], the “Log10 TGI50” value (NCI-H322M) was greater than −4.00, the GI50 (NCI-H322M; [4]) was 14.1 µM and the GI50 (NCI-H322M; [5]) was 14.1 µM. The CC50 (NCI-H322M; [8]) was greater than 100 µM, the GI50 [1] was 1.96 to 3.76 µM and the “Log10 TGI50” value (KM12) was −4.89. The GI50 (KM12; [4]) was 3.32 µM, the GI50 (KM12; [5]) was 3.31 µM and the CC50 (KM12; [8]) was greater than 100 µM. For the same molecule, the GI50 [2] was 1.64 to 2.23 µM, the “Log10 TGI50” value (LOX IMVI) was −4.19 and the GI50 (LOX IMVI; [4]) was 4.61 µM. The GI50 (LOX IMVI; [5]) was 4.57 µM, the CC50 (LOX IMVI; [8]) was greater than 100 µM and the “Log10 TGI50” value (SN12C) was greater than −4.00. For the same molecule, the GI50 (SN12C; [4]) was 20.5 µM, the GI50 (SN12C; [5]) was 20.4 µM and the CC50 (SN12C; [8]) was greater than 100 µM. For the same molecule, the GI50 (OVCAR-5; [4]) was greater than 100 µM, the GI50 (OVCAR-5; [5]) was greater than 100 µM and the CC50 (OVCAR-5; [8]) was greater than 100 µM. For the same molecule, the “Log10 TGI50” value (OVCAR-5) was greater than −4.00, the “Log10 TGI50” value (HL-60(TB)) was −4.59 and the GI50 (HL-60(TB); [4]) was 3.84 µM. For the same molecule, the GI50 (HL-60(TB); [5]) was 3.8 µM, the CC50 (HL-60(TB); [8]) was greater than 100 µM and the “Log10 TGI50” value (HT-29) was −4.82. The GI50 (HT-29; [4]) was 3.92 µM, the GI50 (HT-29; [5]) was 3.89 µM and the CC50 (HT-29; [8]) was greater than 100 µM. It also gave a GI50 (SK-OV-3; [6]) of 5.33 µM, a GI50 (SK-OV-3; [7]) of 5.37 µM and a CC50 (SK-OV-3) greater than 100 µM. The “Log10 TGI50” value (SK-OV-3) was −4.11, the “Log10 TGI50” value (COLO 205) was −4.92 and the GI50 (COLO 205; [4]) was 3.19 µM. For the same molecule, the GI50 (COLO 205; [5]) was 3.16 µM, the CC50 (COLO 205; [8]) was greater than 100 µM and the “Log10 TGI50” value (HCT-116) was greater than −4.00. It also gave a GI50 (HCT-116; [4]) of 5.17 µM, a GI50 (HCT-116; [5]) of 5.13 µM and a CC50 (HCT-116; [8]) greater than 100 µM. It also gave a GI50 (OVCAR-4; [4]) of 12 µM, a GI50 (OVCAR-4; [5]) of 12 µM and a CC50 (OVCAR-4; [8]) greater than 100 µM. For the same molecule, the “Log10 TGI50” value (OVCAR-4) was −4.04, the GI50 (UACC-62; [4]) was 6.9 µM and the GI50 (UACC-62; [5]) was 6.92 µM. For the same molecule, the CC50 (UACC-62; [8]) was greater than 100 µM, the “Log10 TGI50” value (UACC-62) was greater than −4.00 and the “Log10 TGI50” value (786-0) was greater than −4.00. It also gave a GI50 (786-0; [4]) of 5.31 µM, a GI50 (786-0; [5]) of 5.25 µM and a CC50 (786-0; [8]) greater than 100 µM. For the same molecule, the “Log10 TGI50” value (MDA-MB-231/ATCC) was greater than −4.00, the GI50 (MDA-MB-231/ATCC; [6]) was 5.53 µM and the GI50 (MDA-MB-231/ATCC; [7]) was 5.5 µM. The CC50 (MDA-MB-231/ATCC) was greater than 100 µM, the “Log10 TGI50” value (NCI/ADR-RES) was −4.46 and the GI50 (NCI/ADR-RES; [6]) was 3.61 µM. The GI50 (NCI/ADR-RES; [7]) was 3.63 µM, the CC50 (NCI/ADR-RES) was greater than 100 µM and the “Log10 TGI50” value (NCI-H23) was greater than −4.00. It also gave a GI50 (NCI-H23; [4]) of 17.3 µM, a GI50 (NCI-H23; [5]) of 17.4 µM and a GI50 (OVCAR-3; [4]) of 2.33 µM. For the same molecule, the GI50 (OVCAR-3; [5]) was 2.34 µM, the CC50 (OVCAR-3; [8]) was greater than 100 µM and the “Log10 TGI50” value (OVCAR-3) was −5.19. For the same molecule, the GI50 (SK-MEL-2; [4]) was 4.54 µM, the GI50 (SK-MEL-2; [5]) was 4.57 µM and the CC50 (SK-MEL-2; [8]) was greater than 100 µM. The “Log10 TGI50” value (SK-MEL-2) was −4.66, the “Log10 TGI50” value (MCF7) was greater than −4.00 and the GI50 (MCF7; [6]) was 3.17 µM. It also gave a GI50 (MCF7; [7]) of 3.16 µM, a CC50 (MCF7) greater than 100 µM and a GI50 (SF-268; [4]) of 5.33 µM. For the same molecule, the GI50 (SF-268; [5]) was 5.37 µM, the CC50 (SF-268; [8]) was greater than 100 µM and the “Log10 TGI50” value (SF-268) was −4.01. The GI50 [3] was 1.32 to 3.9 µM, the GI50 (RPMI-8226; [6]) was 3.6 µM and the GI50 (RPMI-8226; [7]) was 3.63 µM. The CC50 (RPMI-8226) was greater than 100 µM, the “Log10 TGI50” value (RPMI-8226) was greater than −4.00 and the “Log10 TGI50” value (HOP-62) was greater than −4.00. It also gave a GI50 (HOP-62; [4]) of 13.3 µM, a GI50 (HOP-62; [5]) of 13.2 µM and a CC50 (HOP-62; [8]) greater than 100 µM. The “Log10 TGI50” value (M14) was “->−4.00”, the GI50 (M14; [4]) was 4.93 µM and the GI50 (M14; [5]) was 4.9 µM. For the same molecule, the CC50 (M14; [8]) was greater than 100 µM.
